Test results reported in PMC2812605 (Biochemical pharmacology, 2009).

Molecular target: T1, P2Y14 receptor (Rattus norvegicus, UniProt O35881)
T1 sequence (O35881 1-305): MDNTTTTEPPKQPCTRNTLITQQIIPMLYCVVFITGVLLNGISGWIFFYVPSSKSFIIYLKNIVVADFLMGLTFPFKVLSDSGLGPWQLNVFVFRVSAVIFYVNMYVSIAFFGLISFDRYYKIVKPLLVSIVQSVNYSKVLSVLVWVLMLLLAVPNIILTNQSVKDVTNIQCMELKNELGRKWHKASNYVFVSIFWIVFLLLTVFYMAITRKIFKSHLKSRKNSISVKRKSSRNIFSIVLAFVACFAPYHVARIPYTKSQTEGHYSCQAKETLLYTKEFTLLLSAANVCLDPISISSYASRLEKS
Test: agonist-stimulated […]GTPγS binding to RBL-2H3 membranes
Format: biochemical

O=c1ccn([C@@H]2O[C@H](COP(=O)(O)OP(=O)(O)O[C@H]3O[C@H](CO)[C@@H](O)[C@H](O)[C@H]3O)[C@@H](O)[C@H]2O)c(=S)[nH]1 [MRS2690, diphosphoric acid 1-α-D-glucopyranosyl ester 2-(2-thiouridin-5’’-yl) ester]
EC50: 8.1 ± 1.6 nM
